Our source for the IC50 and Kd values is ChEMBL document CHEMBL5723035, “Affinity Biochemical Literature for EUbOPEN Chemogenomic Library” (2024).

Non-standard residues stand in square brackets, D forms with d. Residues, ends and D or L forms follow the SMILES beside them. *: point of attachment. Benzoyl(4-OPh) = O=C(c1ccc(Oc2ccccc2)cc1)*; Lys(Et2) = CCN(CC)CCCC[C@H](N)C(=O)O; d(aIle) = CC[C@H](C)[C@@H](N)C(=O)O; Gly(cPent) = N[C@H](C(=O)O)C1CCCC1; NH(propargyl) = C#CCN*

The target of one assay is Acid ceramidase (Homo sapiens, UniProt Q13510). Briefly: Affinity Biochemical interaction: (inhibition of substrate hydrolysis determined through mass spectrometry) EUB0002527a ASAH1. Also on record: mode of action Inhibitor, recommended concentration 1 uM. Format: functional.
Chain of Acid ceramidase (Q13510 22-142 limits assumed): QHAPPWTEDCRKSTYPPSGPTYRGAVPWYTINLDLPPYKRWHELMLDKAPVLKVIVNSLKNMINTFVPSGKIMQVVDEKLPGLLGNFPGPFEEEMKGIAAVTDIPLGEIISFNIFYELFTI
Chain of Acid ceramidase (Q13510 143-395 limits assumed): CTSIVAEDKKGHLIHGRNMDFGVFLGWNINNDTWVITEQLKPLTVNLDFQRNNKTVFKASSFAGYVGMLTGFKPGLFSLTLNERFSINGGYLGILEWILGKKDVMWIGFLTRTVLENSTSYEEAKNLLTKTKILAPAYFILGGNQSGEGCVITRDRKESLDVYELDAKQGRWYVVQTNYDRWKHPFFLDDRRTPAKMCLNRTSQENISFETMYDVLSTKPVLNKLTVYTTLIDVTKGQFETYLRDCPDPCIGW
The target in assay [1] is Ubiquitin carboxyl-terminal hydrolase 14 (Homo sapiens, UniProt P54578).
For assay [2], the target named is Protein-arginine deiminase type-4 (Homo sapiens, UniProt Q9UM07). Briefly: Affinity Biochemical interaction: (enzyme inhibition, detection of citrullated histone H3 by either immunoblot with LiC or quantitation or an ELISA-based assay using anti-citrullated histone H3 rabbit polyclonal antibody) EUB0002517a PADI4. More on the design: mode of action Inhibitor, recommended concentration 1 uM. Format: functional.

Assay [3] addresses T1, 3',5'-cyclic-AMP phosphodiesterase 4A (Homo sapiens, UniProt P27815). Description: Affinity Biochemical interaction: (fluorescence polarisation assay, inhibition of enzyme activity) EUB0002577a PDE4A. Format: functional. More on the design: mode of action Inhibitor, recommended concentration 1 uM. In general terms: Fluorescence polarisation rises when a labelled molecule tumbles more slowly, as on binding a larger partner.

The target in assay [4] is T2, 3',5'-cyclic-AMP phosphodiesterase 4C (Homo sapiens, UniProt Q08493). Briefly: Affinity Biochemical interaction: (fluorescence polarisation assay, inhibition of enzyme activity) EUB0002577a PDE4C. Format: functional. More on the design: mode of action Inhibitor, recommended concentration 1 uM.
T2 sequence (Q08493 whole entry): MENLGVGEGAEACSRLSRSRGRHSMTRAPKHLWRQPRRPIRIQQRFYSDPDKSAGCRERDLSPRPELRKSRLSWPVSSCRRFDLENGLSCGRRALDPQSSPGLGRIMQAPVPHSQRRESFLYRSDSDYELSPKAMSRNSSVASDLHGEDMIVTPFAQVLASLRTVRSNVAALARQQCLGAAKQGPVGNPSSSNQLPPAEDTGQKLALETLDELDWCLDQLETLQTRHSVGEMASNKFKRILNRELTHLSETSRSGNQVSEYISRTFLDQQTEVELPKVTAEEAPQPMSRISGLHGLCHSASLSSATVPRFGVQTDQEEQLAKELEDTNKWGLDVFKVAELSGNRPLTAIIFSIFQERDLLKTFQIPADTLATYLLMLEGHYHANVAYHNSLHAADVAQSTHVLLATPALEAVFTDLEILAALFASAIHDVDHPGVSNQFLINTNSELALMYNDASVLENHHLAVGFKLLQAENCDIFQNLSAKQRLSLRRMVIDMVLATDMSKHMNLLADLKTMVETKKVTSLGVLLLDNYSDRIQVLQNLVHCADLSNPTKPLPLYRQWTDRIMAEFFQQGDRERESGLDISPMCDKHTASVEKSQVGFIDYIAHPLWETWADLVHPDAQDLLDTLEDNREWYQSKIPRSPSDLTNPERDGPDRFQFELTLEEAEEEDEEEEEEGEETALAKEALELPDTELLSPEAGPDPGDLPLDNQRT
Assay [5] has as its target T3, Chromobox protein homolog 8 (Homo sapiens, UniProt Q9HC52).
T3 sequence (Q9HC52 whole entry): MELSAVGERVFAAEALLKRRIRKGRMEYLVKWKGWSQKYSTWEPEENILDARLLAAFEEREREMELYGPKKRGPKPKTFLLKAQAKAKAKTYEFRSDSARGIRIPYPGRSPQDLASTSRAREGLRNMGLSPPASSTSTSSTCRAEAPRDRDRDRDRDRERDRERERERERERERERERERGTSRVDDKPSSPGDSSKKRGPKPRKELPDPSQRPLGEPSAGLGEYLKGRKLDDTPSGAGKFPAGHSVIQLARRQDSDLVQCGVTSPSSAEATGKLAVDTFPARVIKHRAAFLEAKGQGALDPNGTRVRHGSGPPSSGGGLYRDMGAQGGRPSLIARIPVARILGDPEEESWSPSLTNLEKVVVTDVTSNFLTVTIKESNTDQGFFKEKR
Description: Affinity Biochemical interaction: (Fluorescence polarisation (fluorescein conjugated)) EUB0002326a CBX8. Also on record: mode of action Inhibitor, recommended concentration 1 uM. Format: functional.

Assay [6] addresses T3, Chromobox protein homolog 8. Description: Affinity Biochemical interaction: (MST (fluorescein-conjugated)) EUB0002326a CBX8. More on the design: mode of action Inhibitor, recommended concentration 1 uM.
Assay [7] has the same target. Description: Affinity Biochemical interaction: (Thermal Shift Assay) EUB0002326a CBX8. Also on record: mode of action Inhibitor, recommended concentration 1 uM.
The target in assay [8] is Dual specificity calcium/calmodulin-dependent 3',5'-cyclic nucleotide phosphodiesterase 1A (Homo sapiens, UniProt P54750). Description: Affinity Biochemical interaction: (inhibition of [3H]cGMP cleavage, scintillation proximity assay) EUB0002562a PDE1A. More on the design: mode of action Inhibitor, recommended concentration 1 uM. Format: functional. (Scintillation proximity formats need no separation of bound from free tracer.)

The next assay addresses Histone deacetylase 3 (Homo sapiens, UniProt O15379).
Assay [9] concerns the target Triacylglycerol hydrolase DDHD2 (Homo sapiens, UniProt O94830). Description: Affinity Biochemical interaction: (Gel-based competitive activity-based protein profiling with HT-01 probe and membranes) EUB0002612a DDHD2. More on the design: mode of action Inhibitor, recommended concentration 1 uM. Format: functional, cell membranes.
Assay [10] addresses T4, Bromodomain-containing protein 2 (Homo sapiens, UniProt P25440). Description: (§1) Affinity Biochemical interaction: (BROMOscan assay) EUB0002282a BRD2. More on the design: mode of action Inhibitor, recommended concentration 1 uM.
The target in assay [11] is T4, Bromodomain-containing protein 2. The description is as §1. Also on record: mode of action Inhibitor, recommended concentration 1 uM. The source holds these as a separate data set.
In assay [12] the target is T5, Bromodomain-containing protein 3 (Homo sapiens, UniProt Q15059). Description: (§2) Affinity Biochemical interaction: (BROMOscan assay) EUB0002282a BRD3. Also on record: mode of action Inhibitor, recommended concentration 1 uM.
T5 sequence (Q15059 whole entry): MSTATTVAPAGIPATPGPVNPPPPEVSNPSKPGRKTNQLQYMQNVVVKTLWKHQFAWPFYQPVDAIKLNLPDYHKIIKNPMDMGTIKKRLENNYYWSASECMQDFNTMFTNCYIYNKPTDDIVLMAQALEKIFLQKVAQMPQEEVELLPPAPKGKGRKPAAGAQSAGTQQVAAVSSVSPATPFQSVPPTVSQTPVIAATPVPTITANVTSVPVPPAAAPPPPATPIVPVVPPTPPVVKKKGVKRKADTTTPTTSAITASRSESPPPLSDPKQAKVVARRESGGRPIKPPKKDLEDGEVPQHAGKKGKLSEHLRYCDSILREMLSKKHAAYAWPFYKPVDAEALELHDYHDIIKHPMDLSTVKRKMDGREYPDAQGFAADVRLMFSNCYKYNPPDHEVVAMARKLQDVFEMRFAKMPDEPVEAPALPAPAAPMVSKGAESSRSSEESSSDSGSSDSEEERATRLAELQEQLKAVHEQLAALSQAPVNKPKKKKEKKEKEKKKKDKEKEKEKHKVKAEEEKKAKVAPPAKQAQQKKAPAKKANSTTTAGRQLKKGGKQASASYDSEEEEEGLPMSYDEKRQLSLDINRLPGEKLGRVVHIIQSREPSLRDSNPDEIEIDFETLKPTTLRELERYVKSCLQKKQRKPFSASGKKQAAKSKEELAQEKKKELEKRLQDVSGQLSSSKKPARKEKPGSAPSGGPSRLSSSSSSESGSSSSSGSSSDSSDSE
The target in assay [13] is T5, Bromodomain-containing protein 3. Described as §2. Also on record: mode of action Inhibitor, recommended concentration 1 uM. The source holds these as a separate data set.
The target in assay [14] is T6, Bromodomain-containing protein 4 (Homo sapiens, UniProt O60885). Description: (§3) Affinity Biochemical interaction: (AlphaLISA) EUB0002282a BRD4. Format: functional. Also on record: mode of action Inhibitor, recommended concentration 1 uM. A general note: Alpha assays give light when donor and acceptor beads are brought close together.
The target of assay [15] is T6, Bromodomain-containing protein 4. Described as §3. In kind it is functional. Also on record: mode of action Inhibitor, recommended concentration 1 uM. This is another data set of the same source.
Assay [16] concerns the target Bromodomain testis-specific protein (Homo sapiens, UniProt Q58F21). Description: Affinity Biochemical interaction: (BROMOscan assay) EUB0002282a BRDT. Also on record: mode of action Inhibitor, recommended concentration 1 uM.
The target of assay [17] is T7, Histone-lysine N-methyltransferase SETD7 (Homo sapiens, UniProt Q8WTS6). Briefly: Affinity Biochemical interaction: (inhibition of histone H3(1-21) methylation) EUB0002319a SETD7. More on the design: mode of action Inhibitor, recommended concentration 1 uM. Format: functional.
T7 sequence (Q8WTS6 whole entry): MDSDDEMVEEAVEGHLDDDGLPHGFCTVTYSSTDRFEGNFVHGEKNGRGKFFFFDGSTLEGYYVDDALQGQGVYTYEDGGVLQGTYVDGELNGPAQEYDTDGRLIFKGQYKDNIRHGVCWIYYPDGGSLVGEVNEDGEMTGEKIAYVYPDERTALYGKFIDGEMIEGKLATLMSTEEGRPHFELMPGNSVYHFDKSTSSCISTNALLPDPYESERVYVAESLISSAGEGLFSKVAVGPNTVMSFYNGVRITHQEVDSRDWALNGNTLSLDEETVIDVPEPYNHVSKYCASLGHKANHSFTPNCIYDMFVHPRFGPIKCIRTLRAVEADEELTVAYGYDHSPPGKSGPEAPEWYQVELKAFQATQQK
The target in assay [18] is T7, Histone-lysine N-methyltransferase SETD7. Description: Affinity Biochemical interaction: (inhibition of histone H3 methylation) EUB0002319a SETD7. Format: functional. Also on record: mode of action Inhibitor, recommended concentration 1 uM.
Assay [19] has as its target T8, Protein arginine N-methyltransferase 5 (Homo sapiens, UniProt O14744). Description: Affinity Biochemical interaction: (inhibition of histone H4 (1-21) methylation) EUB0002319a PRMT5. In kind it is functional. Also on record: mode of action Inhibitor, recommended concentration 1 uM.
The target in assay [20] is T8, Protein arginine N-methyltransferase 5. Briefly: Affinity Biochemical interaction: (inhibition of histone H4 methylation) EUB0002319a PRMT5. Format: functional. Also on record: mode of action Inhibitor, recommended concentration 1 uM.
Assay [21] deals with T1, 3',5'-cyclic-AMP phosphodiesterase 4A. Briefly: Affinity Biochemical interaction: (radioligand binding assay, inhibition of [3H]cAMP or [3H]cGMP cleavage) EUB0002534a PDE4A. Also on record: mode of action Inhibitor, recommended concentration 1 uM.
Assay [22] concerns the target 3',5'-cyclic-AMP phosphodiesterase 4B (Homo sapiens, UniProt Q07343). Briefly: Affinity Biochemical interaction: (radioligand binding assay, inhibition of [3H]cAMP or [3H]cGMP cleavage) EUB0002534a PDE4B. Also on record: mode of action Inhibitor, recommended concentration 1 uM.
Assay [23] has as its target T2, 3',5'-cyclic-AMP phosphodiesterase 4C. Briefly: Affinity Biochemical interaction: (radioligand binding assay, inhibition of [3H]cAMP or [3H]cGMP cleavage) EUB0002534a PDE4C. More on the design: mode of action Inhibitor, recommended concentration 1 uM.
In assay [24] the target is 3',5'-cyclic-AMP phosphodiesterase 4D (Homo sapiens, UniProt Q08499). Briefly: Affinity Biochemical interaction: (radioligand binding assay, inhibition of [3H]cAMP or [3H]cGMP cleavage) EUB0002534a PDE4D. Also on record: mode of action Inhibitor, recommended concentration 1 uM.
In a further assay the target is Histone deacetylase 1 (Homo sapiens, UniProt Q13547). Briefly: Affinity Biochemical interaction: (fluorometric activity assay) EUB0002519a HDAC1. In kind it is functional. Also on record: mode of action Inhibitor, recommended concentration 1 uM.
For the next assay, the target named is Histone deacetylase 2 (Homo sapiens, UniProt Q92769). Briefly: Affinity Biochemical interaction: (fluorometric activity assay) EUB0002519a HDAC2. Also on record: mode of action Inhibitor, recommended concentration 1 uM. Format: functional.

T8 sequence (O14744 whole entry): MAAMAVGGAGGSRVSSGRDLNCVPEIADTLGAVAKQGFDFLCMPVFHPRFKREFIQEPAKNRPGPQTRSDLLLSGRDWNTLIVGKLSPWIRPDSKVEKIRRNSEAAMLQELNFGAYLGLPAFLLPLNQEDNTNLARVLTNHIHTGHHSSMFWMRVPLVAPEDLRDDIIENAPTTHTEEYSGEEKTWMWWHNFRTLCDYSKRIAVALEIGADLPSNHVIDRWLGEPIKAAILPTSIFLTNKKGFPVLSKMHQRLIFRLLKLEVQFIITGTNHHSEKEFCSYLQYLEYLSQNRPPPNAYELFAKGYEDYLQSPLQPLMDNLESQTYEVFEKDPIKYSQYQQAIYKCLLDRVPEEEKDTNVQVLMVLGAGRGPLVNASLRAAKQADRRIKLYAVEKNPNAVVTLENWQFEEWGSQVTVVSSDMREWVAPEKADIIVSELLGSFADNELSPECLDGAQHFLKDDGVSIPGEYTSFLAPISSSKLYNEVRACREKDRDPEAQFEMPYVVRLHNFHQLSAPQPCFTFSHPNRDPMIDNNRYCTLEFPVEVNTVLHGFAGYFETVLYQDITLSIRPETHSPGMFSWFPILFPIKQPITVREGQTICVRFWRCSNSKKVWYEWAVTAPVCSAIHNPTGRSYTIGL
T4 sequence (P25440 whole entry): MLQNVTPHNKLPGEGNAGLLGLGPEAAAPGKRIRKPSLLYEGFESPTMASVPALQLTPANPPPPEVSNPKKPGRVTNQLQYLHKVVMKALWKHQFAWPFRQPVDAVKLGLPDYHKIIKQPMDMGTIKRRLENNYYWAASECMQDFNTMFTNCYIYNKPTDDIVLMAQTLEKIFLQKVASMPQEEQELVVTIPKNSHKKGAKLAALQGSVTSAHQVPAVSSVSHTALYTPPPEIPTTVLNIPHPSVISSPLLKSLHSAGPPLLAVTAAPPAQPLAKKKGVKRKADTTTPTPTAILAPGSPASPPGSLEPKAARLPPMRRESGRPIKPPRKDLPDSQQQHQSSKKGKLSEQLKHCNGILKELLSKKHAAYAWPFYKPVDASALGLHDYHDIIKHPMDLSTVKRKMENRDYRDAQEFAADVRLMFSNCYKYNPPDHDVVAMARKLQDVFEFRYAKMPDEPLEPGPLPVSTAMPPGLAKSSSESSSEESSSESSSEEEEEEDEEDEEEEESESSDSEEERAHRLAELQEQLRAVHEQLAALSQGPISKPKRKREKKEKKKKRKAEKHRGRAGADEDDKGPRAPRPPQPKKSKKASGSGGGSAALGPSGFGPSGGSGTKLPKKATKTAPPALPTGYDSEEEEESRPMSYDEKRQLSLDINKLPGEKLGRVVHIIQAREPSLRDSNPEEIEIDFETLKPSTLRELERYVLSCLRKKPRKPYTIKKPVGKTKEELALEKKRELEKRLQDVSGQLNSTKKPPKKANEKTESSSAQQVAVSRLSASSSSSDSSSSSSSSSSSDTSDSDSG
T1 sequence (P27815 whole entry): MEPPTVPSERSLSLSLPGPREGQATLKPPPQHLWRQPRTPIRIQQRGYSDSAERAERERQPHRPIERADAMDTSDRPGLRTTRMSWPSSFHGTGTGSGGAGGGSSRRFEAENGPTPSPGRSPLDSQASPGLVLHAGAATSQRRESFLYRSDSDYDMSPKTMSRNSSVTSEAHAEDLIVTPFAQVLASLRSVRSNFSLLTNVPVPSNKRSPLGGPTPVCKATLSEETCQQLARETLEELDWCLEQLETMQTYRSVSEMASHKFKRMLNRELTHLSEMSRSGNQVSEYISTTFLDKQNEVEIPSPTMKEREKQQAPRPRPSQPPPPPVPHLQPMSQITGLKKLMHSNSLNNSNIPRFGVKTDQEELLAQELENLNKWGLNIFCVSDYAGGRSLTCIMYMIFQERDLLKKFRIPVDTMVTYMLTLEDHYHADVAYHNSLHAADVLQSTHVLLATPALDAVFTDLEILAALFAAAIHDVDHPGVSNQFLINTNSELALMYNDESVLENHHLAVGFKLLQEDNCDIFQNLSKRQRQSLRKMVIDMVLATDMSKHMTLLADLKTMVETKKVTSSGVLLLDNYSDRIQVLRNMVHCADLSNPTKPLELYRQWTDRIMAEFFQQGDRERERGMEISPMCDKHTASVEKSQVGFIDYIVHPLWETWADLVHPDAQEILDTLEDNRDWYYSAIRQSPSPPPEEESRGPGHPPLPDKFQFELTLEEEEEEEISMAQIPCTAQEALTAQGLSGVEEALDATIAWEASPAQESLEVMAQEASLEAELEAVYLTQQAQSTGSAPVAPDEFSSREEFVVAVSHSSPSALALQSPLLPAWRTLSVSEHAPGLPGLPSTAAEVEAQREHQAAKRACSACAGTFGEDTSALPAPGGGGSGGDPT
Chain of Histone deacetylase 3 (O15379 whole entry): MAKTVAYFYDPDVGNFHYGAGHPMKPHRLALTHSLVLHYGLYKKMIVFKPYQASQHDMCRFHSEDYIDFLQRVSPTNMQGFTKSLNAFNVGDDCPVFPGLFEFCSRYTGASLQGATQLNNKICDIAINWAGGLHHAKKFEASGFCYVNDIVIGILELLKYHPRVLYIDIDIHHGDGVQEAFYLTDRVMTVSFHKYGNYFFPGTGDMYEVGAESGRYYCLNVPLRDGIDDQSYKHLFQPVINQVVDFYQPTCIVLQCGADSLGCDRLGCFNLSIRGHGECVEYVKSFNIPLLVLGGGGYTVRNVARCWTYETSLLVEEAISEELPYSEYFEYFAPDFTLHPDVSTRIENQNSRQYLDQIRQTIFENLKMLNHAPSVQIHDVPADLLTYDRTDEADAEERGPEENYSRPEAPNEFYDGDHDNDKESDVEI

Regarding `CCCCCCNC(=O)n1cc(F)c(=O)[nH]c1=O` [CARMOFUR], the IC50 (commonly the concentration that inhibits the measured activity by half) against Acid ceramidase was 29 nM.
In assay [1], `Cc1cc(C(=O)CN2CCCCC2)c(C)n1-c1ccc(Cl)cc1` returned an IC50 of 600 nM.
Turning to `COc1cc(C(=O)N2C[C@H](N)CC[C@@H]2C)cc2nc(-c3cc4cccnc4n3CC3CC3)n(C)c12`, the midpoint of inhibition in [2], the IC50, lay at 98 nM.
As to `CC(C)NC(=O)c1ccc(OC(F)F)c(OCC2CC2)c1`, the half-inhibitory concentration (IC50) in assay [3] came to 113 nM; in assay [4], 164 nM.
As for `C#CCNC(=O)[C@H](CO)NC(=O)[C@H](CCCCN(CC)CC)NC(=O)[C@H](NC(=O)[C@@H](NC(=O)c1ccc(Oc2ccccc2)cc1)C1CCCC1)[C@@H](C)CC` ({Benzoyl(4-OPh)}-[Gly(cPent)][d(aIle)][Lys(Et2)]S-{NH(propargyl)}), the Kd (as a rule, a measure of binding affinity in units of concentration) in assay [5] was determined as 800 nM; in [6], 700 nM; in assay [7], 500 nM.
As for `Cn1c(OC[C@H]2CC[C@H](C(F)(F)F)CC2)nn2c(C3CCOCC3)ncc2c1=O`, the IC50 in assay [8] turned out to be 97.6 nM.
On to `CN(C)Cc1ccc(S(=O)(=O)n2ccc(/C=C/C(=O)NO)c2)cc1`, for which the 50% inhibitory concentration (IC50) at Histone deacetylase 3 worked out at 50.1 nM.
For `O=C(N(CCc1ccccc1)C1CCCCC1)n1ncc(-c2ccc(OC(F)(F)F)cc2)n1`, the half-inhibitory concentration (IC50) in assay [9] was found to be 1.3 nM.
As to `Cc1cc(-c2ccc3nc(C4CCOCC4)n(CCOC(F)(F)F)c3c2)cn(C)c1=O`, the Kd in [10] came out at 3.2 nM; in assay [11] it was 5.2 nM; in [12], 2.3 nM; in assay [13], 2.9 nM; in [14] it was 6.5 nM; in [15], 7.6 nM. In addition, the dissociation constant (Kd) in assay [16] turned out to be 3.1 nM.
Regarding `Nc1ncnc2c1ncn2[C@@H]1O[C@H](C[C@@H](N)CC[C@H](N)C(=O)O)[C@@H](O)[C@H]1O` [SINEFUNGIN], the IC50 in [17] was determined as 2380 nM; in assay [18] it was 9100 nM; in assay [19], 310 nM; in assay [20], 690 nM.
In the case of `Nc1cc2c3c(c1)C(c1ccccc1)=N[C@@H](NC(=O)c1cccnc1)C(=O)N3CC2`, the concentration for half-maximal inhibition (IC50) amounted to 290 nM in [21], 80 nM in assay [22], 560 nM in assay [23] and 90 nM in assay [24].
On to `Nc1ccc(-c2cccs2)cc1NC(=O)c1ccc(NC=O)cc1`, for which the figures for the half-maximal inhibitory concentration (IC50) on Histone deacetylase 1 and at Histone deacetylase 2 were 40 nM and 100 nM, respectively.
